Assay results reported in PubChem BioAssay (NCI).
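Abbreviation: GI50, concentration required for 50% inhibition of growth. TGI marks complete inhibition of growth.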

Columns and labels:
Assay in all cases: inhibition of tumour cell growth, NCI panel, 384-well format
[1] = system: TK-10 renal
[2] = system: SF-539 CNS
[3] = system: COLO 205 colon
[4] = system: SF-268 CNS
[5] = system: 786-0 renal
[6] = system: NCI-H522 lung
[7] = system: SW-620 colon
[8] = system: MDA-MB-435 melanoma
[9] = system: HS 578T breast
[10] = system: HCT-15 colon
[11] = system: HCC-2998 colon
[12] = system: MDA-MB-231 breast
[13] = system: IGROV1 ovarian
[14] = system: RPMI-8226 leukemia
[15] = system: SNB-19 CNS
[16] = system: LOX IMVI melanoma
[17] = system: HL-60(TB) leukemia
[18] = system: SN12C renal
[19] = system: SK-MEL-28 melanoma
[20] = system: OVCAR-4 ovarian
[21] = system: MDA-MB-468 breast
[22] = system: MOLT-4 leukemia
[23] = system: SF-295 CNS
[24] = system: OVCAR-8 ovarian
[25] = system: BT-549 breast
[26] = system: UO-31 renal
[27] = system: DU-145 prostate
[28] = system: MCF7 breast
[29] = system: CCRF-CEM leukemia
[30] = system: SK-MEL-2 melanoma

Work on CCN1CCC(Oc2c(C#N)ncc3[nH]c4ncccc4c23)CC1 yielded a GI50 [1] of 0.329 µM, a GI50 [2] of 0.0858 µM and a TGI [2] of 0.273 µM. For the same compound, the GI50 [3] was 2.52 µM, the TGI [3] was 5.81 µM and the GI50 [4] was 3.5 µM. The TGI [4] was 14.8 µM, the GI50 [5] was 2.52 µM and the TGI [5] was > 100 µM. For the same compound, the GI50 [6] was 3.19 µM, the TGI [6] was > 100 µM and the GI50 [7] was 2.3 µM. For the same compound, the TGI [7] was 5.54 µM, the GI50 [8] was 0.52 µM and the TGI [8] was 1.76 µM. It also gave a GI50 [9] of 0.199 µM, a TGI [9] of 1.4 µM and a GI50 [10] of 2.26 µM. The TGI [10] was > 88.1 µM, the GI50 [11] was 0.0933 µM and the TGI [11] was 0.41 µM. The GI50 [12] was 26.3 µM, the TGI [12] was 69.8 µM and the GI50 [13] was 1.63 µM. The TGI [13] was > 100 µM, the GI50 [14] was 0.72 µM and the TGI [14] was 1.97 µM. The GI50 [15] was 4.56 µM, the TGI [15] was > 100 µM and the GI50 [16] was 1.67 µM. The TGI [16] was > 100 µM, the GI50 [17] was 0.548 µM and the TGI [17] was 1.04 µM. For the same compound, the GI50 [18] was 3.25 µM, the TGI [18] was > 52.1 µM and the GI50 [19] was > 100 µM. The TGI [19] was > 100 µM, the GI50 [20] was > 100 µM and the TGI [20] was > 100 µM. For the same compound, the TGI [21] was > 22.5 µM, the GI50 [22] was 0.172 µM and the TGI [22] was 0.327 µM. For the same compound, the GI50 [23] was 0.12 µM, the TGI [23] was 0.619 µM and the GI50 [24] was 1.01 µM. The TGI [24] was > 100 µM, the GI50 [25] was 0.147 µM and the TGI [25] was 0.426 µM. It also gave a GI50 [26] of 0.221 µM, a TGI [26] of 1.65 µM and a GI50 [27] of 5.9 µM. For the same compound, the TGI [27] was > 100 µM, the GI50 [28] was 0.317 µM and the TGI [28] was > 100 µM. The GI50 [29] was 0.182 µM, the TGI [29] was 0.356 µM and the GI50 [30] was 1.17 µM. The TGI [30] was 4.47 µM.
